Measured values taken from patent US6652835B1, “Targeting multimeric imaging agents through multilocus binding” (Epix Medical, Inc., priority 1999, dated 2003).
“And” between values parts separate entries of the source, which are not always exact repeats. Identical values can stand only once.

Tests used:
[1] = target: T1, Human Serum Albumin (HSA) (Homo sapiens, UniProt P02768); test: Percent binding to HSA (ultrafiltration); details: target HSA
From the text: The extent of binding of a TBM to a target, such as HSA or fibrin, can be assessed by a variety of equilibrium binding methods. For example, binding to HSA can be measured by ultrafiltration. In a typical binding measurement using ultrafiltration, the targeting group is mixed with 4.5% weight/volume HSA in a pH 7.4 buffer. The sample is loaded into a commercially available centrifugation apparatus equipped with a 30 KDa molecular weight cutoff filter (Millipore Ultrafree MC Low Binding Regenerated Cellulose 30 KDa mol. wt. cutoff catalog #UFC3LTK00), permeable to the targeting group, but not HSA. A small portion (5-10%) of the sample volume is filtered by centrifugation at 2000×g for 20 min through the cutoff filter, and the concentration of unbound targeting group in the sample is measured in the filtrate. The concentration of species bound to the target under these conditions is determined in a separate experiment using e.g. ultrafiltration or equilibrium dialysis. Knowledge of the amount of species bound to the target, the relaxivity in the presence of the target, and the relaxivity in the absence of the target allows the calculation of the average bound relaxivity as described herein.

[2] = Relaxivity of the free agent in the absence of target (20 MHz, 37° C.); assay type: physicochemical; details: no target
Method: (§1) The compounds of the present invention were evaluated for relaxivity using a Bruker NMS-120 Minispec NMR spectrometer operating at 0.47 Tesla (20 MHz H-1 Larmor frequency) and 37° C. T1 of water protons was determined by an inversion recovery pulse sequence using the instrument's software. Relaxivity was determined in the presence of the target (typically 4.5% HSA) by preparing 4 individual samples. The first contained only 4.5% HSA in phosphate buffered saline (PBS), and the other three contained ca. 20, 30, and 40 μM Gd(III), respectively, in addition to 4.5% HSA in PBS. The samples are incubated at 37 degrees C. for at least 15 minutes to ensure temperature equilibration before the T1 measurement is performed. The Gd(III) content of the samples is determined by inductively coupled plasma—mass spectrometry (ICP-MS). The relaxivity (per Gd(III) ion) is determined by plotting the relaxation rate (1/T1) in s^−1 versus the Gd(III) concentration in mM. The slope of a linear fit to the data gives the relaxivity. The relaxivity of the compounds in the absence of target is also determined in an analogous manner, except there is no target present.

[3] = target: T1, Human Serum Albumin (HSA); test: Average bound relaxivity in the presence of 4.5% HSA (20 MHz, 37° C.); assay type: physicochemical; details: for R1bound/Gd^+3 mM^−1s^−1 (20 MHz) / Total R1bound mM^−1s^−1 (20 MHz): bound to HSA; for R1bound/Gd^+3 mM^−1s^−1 (20 MHz): per Gd(III); for Total R1bound mM^−1s^−1 (20 MHz): whole molecule
From the text: To understand Table 1, it is important to define the extent to which a target-binding MRI contrast agent can achieve its maximum possible relaxivity. This maximum relaxivity for a particular contrast agent is approximately equal to the relaxivity of the molecule when bound to a target (R1bound), such as Human Serum Albumin (HSA). The average ? bound is a normalized measure of the average relaxivity for all bound species under a standard set of conditions (such as a specific target or protein concentration, drug concentration, temperature, etc.) that is weighted by the bound population of each species. Therefore, since the value of ? bound is a normalized quantity, comparisons of relaxivities can be made among different molecules in the bound state by comparing values for ? bound. Comparison of the calculated ? bound values provides a convenient method for comparing compounds irrespective of their affinities for a target.
Calculating the average ( ? bound) requires measuring the relaxivity of the free chelate (R1free) as well as the observed relaxivity (R1obs) and percent binding of the agent to a target solution typically containing 4.5% of the target, e.g., HSA. The R1obs is a mole fraction (x) weighted average of R1free and R1bound: [formula]
as §1
The concentration of species bound to the target under these conditions is determined in a separate experiment using e.g. ultrafiltration or equilibrium dialysis. Knowledge of the amount of species bound to the target, the relaxivity in the presence of the target, and the relaxivity in the absence of the target allows the calculation of the average bound relaxivity as described herein.

[4] = target: T2, clot containing human fibrin (Homo sapiens, UniProt P02671+P02675+P02679); test: Rabbit jugular vein clot model, MR imaging; assay type: in vivo; details: MR images after injection (FIG. 14)
T2 construct: host or cells: clot formed in the clamped rabbit jugular vein from added human fibrinogen and thrombin
T2 sequence (P02671 36-629 limits assumed): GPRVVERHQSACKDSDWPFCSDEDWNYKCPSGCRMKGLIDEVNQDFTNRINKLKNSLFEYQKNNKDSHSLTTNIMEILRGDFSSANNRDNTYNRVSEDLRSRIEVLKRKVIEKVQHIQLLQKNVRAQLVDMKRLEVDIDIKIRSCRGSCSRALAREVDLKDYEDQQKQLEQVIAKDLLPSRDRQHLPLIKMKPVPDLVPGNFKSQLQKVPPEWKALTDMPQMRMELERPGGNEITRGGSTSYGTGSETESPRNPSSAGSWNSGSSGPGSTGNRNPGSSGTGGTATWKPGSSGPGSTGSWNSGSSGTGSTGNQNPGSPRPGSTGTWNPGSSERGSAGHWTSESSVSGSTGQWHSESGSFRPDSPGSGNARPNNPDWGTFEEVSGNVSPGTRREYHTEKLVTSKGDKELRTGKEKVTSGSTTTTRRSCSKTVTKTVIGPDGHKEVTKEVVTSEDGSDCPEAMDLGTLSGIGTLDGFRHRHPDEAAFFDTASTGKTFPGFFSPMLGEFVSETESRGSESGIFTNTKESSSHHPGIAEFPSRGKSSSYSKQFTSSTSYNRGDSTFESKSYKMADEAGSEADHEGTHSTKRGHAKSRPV
T2 sequence (P02675 45-491 limits assumed): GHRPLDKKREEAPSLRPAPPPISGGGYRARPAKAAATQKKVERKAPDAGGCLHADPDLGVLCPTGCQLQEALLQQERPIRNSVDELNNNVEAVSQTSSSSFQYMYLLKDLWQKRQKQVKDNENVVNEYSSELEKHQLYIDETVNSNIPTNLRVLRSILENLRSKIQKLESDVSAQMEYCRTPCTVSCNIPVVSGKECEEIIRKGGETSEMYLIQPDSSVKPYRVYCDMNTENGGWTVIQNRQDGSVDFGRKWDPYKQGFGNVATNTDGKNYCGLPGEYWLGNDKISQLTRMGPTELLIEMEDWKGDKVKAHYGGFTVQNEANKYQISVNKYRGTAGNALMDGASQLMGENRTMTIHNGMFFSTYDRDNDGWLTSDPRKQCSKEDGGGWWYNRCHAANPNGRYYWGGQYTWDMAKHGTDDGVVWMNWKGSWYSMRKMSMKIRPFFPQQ
T2 sequence (P02679 27-437 isoform P02679-2 limits assumed): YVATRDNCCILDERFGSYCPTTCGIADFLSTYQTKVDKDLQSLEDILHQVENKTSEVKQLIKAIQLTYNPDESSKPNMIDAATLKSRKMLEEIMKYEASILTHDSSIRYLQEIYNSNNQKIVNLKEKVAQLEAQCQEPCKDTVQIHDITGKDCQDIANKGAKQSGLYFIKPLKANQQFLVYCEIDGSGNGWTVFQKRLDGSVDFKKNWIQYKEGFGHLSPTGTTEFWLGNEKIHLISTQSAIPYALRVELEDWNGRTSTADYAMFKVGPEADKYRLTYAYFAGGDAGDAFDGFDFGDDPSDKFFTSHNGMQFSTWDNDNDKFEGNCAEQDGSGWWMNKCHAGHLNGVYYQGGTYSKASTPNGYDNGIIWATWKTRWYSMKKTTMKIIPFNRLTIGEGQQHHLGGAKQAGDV
Method: One animal model that may be used is the rabbit jugular vein clot model in which the jugular vein is clamped. The vein is clamped at two locations, and the rabbit blood between the clamps is removed. Human fibrinogen, rabbit red blood cells and thrombin are added to the vein between the clamps to generate a clot containing human fibrin. The clot is typically aged for 30 minutes.
In the rabbit jugular model, a typical machine is a 1.5 Tesla using a spoiled gradient (SPGR) MRI at 36/5/30 deg). Alternatively, a 3D GRE 44/10/30 deg. method of imaging may be used with a 1.5 Tesla machine. Alternatively, IR 2000/10/700 methods may be employed with a 1.5 Tesla.
FIG. 14 is a reproduction of a color photograph of the images obtained in an experiment using the assay given in Example 1.

T1 sequence (P02768 25-609): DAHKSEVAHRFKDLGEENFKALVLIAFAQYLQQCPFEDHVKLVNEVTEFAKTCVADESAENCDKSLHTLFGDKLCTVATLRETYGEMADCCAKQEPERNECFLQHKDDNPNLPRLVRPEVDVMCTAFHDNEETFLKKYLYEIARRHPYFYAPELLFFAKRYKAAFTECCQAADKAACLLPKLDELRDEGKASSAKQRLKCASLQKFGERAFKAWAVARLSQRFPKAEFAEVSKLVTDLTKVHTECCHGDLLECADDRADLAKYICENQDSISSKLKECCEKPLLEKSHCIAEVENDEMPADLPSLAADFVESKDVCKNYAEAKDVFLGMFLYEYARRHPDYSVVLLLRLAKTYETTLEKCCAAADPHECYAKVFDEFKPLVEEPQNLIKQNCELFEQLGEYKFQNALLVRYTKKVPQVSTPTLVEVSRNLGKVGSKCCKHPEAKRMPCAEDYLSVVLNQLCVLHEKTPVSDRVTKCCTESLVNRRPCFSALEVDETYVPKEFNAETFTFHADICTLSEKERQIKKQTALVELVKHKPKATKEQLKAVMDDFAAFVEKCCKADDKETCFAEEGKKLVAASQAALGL

Row | Compound | % Bound [1] [%] | free relaxivity [2] [mM⁻¹ s⁻¹] | ratio of R1bound to R1free ([3]; HSA) | R1bound/Gd^+3 mM^−1s^−1 (20 MHz) [3] | Total R1bound mM^−1s^−1 (20 MHz) [3] | fold increase in total relaxivity, two TBMs versus one TBM (M8-07) ([3]; HSA, relative to M8-07) [fold] | imaging of / binding to the clot [4]
1 | Cc1cc(C)c(-c2ccc(CN(CCN(CCN(CCNC(=O)CNC(=O)CC(C(=O)[O-])N(CCN(CC(=O)[O-])CC(=O)[O-])CCN(CC(=O)[O-])CC(=O)[O-])C(=O)CNC(=O)CC(C(=O)[O-])N(CCN(CC(=O)[O-])CC(=O)[O-])CCN(CC(=O)[O-])CC(=O)[O-])C(=O)CNC(=O)CC(C(=O)[O-])N(CCN(CC(=O)[O-])CC(=O)[O-])CCN(CC(=O)[O-])CC(=O)[O-])C(=O)CNC(=O)CC(C(=O)[O-])N(CCN(CC(=O)[O-])CC(=O)[O-])CCN(CC(=O)[O-])CC(=O)[O-])cc2)c(C)c1.[Gd+3].[Gd+3].[Gd+3].[Gd+3] (stereo not drawn) [Compound M8-07] | 64.1 | 9.2 | 1.7 | 16.0 mM⁻¹ s⁻¹ and 16 mM⁻¹ s⁻¹ | 64.0 mM⁻¹ s⁻¹ and 64 mM⁻¹ s⁻¹ | – | –
2 | Cc1cc(C)c(-c2ccc(CN(CCN(CCN(CCN(Cc3ccc(-c4c(C)cc(C)cc4C)cc3)C(=O)CNC(=O)CC(C(=O)[O-])N(CCN(CC(=O)[O-])CC(=O)[O-])CCN(CC(=O)[O-])CC(=O)[O-])C(=O)CNC(=O)CC(C(=O)[O-])N(CCN(CC(=O)[O-])CC(=O)[O-])CCN(CC(=O)[O-])CC(=O)[O-])C(=O)CNC(=O)CC(C(=O)[O-])N(CCN(CC(=O)[O-])CC(=O)[O-])CCN(CC(=O)[O-])CC(=O)[O-])C(=O)CNC(=O)CC(C(=O)[O-])N(CCN(CC(=O)[O-])CC(=O)[O-])CCN(CC(=O)[O-])CC(=O)[O-])cc2)c(C)c1.[Gd+3].[Gd+3].[Gd+3].[Gd+3] (stereo not drawn) [Compound M8-08] | 93.7 | 10.3 | 4.3 | 44.1 mM⁻¹ s⁻¹ | 176.5 mM⁻¹ s⁻¹ | 2.75 | –
3 | CCCCc1ccc(C(=O)N(Cc2ccccc2)C2c3ccccc3CC2OP(=O)([O-])OCCC#CCN2CCN(C(=O)CNC(=O)CC(C(=O)[O-])N(CCN(CC(=O)[O-])CC(=O)[O-])CCN(CC(=O)[O-])CC(=O)[O-])CCN(C(=O)CNC(=O)CC(C(=O)[O-])N(CCN(CC(=O)[O-])CC(=O)[O-])CCN(CC(=O)[O-])CC(=O)[O-])CCN(C(=O)CNC(=O)CC(C(=O)[O-])N(CCN(CC(=O)[O-])CC(=O)[O-])CCN(CC(=O)[O-])CC(=O)[O-])CC2)cc1.[Gd+3].[Gd+3].[Gd+3] (stereo not drawn) [Compound M8-10] | 66.1 | – | – | 25.7 mM⁻¹ s⁻¹ | 77.1 mM⁻¹ s⁻¹ | – | –
4 | O=C([O-])CN(CCN(CC(=O)[O-])CC(=O)O)CCN(CC(=O)[O-])CC(=O)O.[Gd+3] [Gd-DTPA, gadolinium diethylenetriaminepentaacetic acid] | – | – | – | – | – | – | does not bind
